{"source": "PubChem BioAssay AID1963973", "about": "(Molecular Pharmacology Branch, DTP, NCI, 2024);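 also: spheroids exposed to agents for 7 days before the viability read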", "system": "883617-216-R-J1-PDC tumor spheroids, viability", "assay": "Anticancer human tumor 883617-216-R-J1-PDC patient-derived bladder carcinoma cell line growth inhibition [PI3K]", "conditions": "spheroids with HUVEC and MSC; for viability, T/C: stronger effect = lower value", "how_it_was_run": "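Combination activity was assessed by viability in multicellular tumor spheroids carrying HUVEC and MSC components. Agents were tested with PI3K inhibitors from a Cmax-based top dose (or 10 microM) downward in half-log increments.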", "key": {"[1]": {"conditions": "curve of first compound, second compound 0.0316 µM"}, "[2]": {"conditions": "curve of first compound, second compound 0.1 µM"}, "[3]": {"conditions": "curve of first compound, second compound 0.316 µM"}, "[4]": {"conditions": "curve of first compound, second compound 1 µM"}, "[5]": {"conditions": "second compound 0.0316 µM, first compound 0.0316 µM"}, "[6]": {"conditions": "second compound 0.0316 µM, first compound 0.1 µM"}, "[7]": {"conditions": "second compound 0.0316 µM, first compound 0.316 µM"}, "[8]": {"conditions": "second compound 0.0316 µM, first compound 1 µM"}, "[9]": {"conditions": "second compound 0.0316 µM, first compound 3.16 µM"}, "[10]": {"conditions": "second compound 0.0316 µM, first compound 10 µM"}, "[11]": {"conditions": "second compound 0.1 µM, first compound 0.0316 µM"}, "[12]": {"conditions": "second compound 0.1 µM, first compound 0.1 µM"}, "[13]": {"conditions": "second compound 0.1 µM, first compound 0.316 µM"}, "[14]": {"conditions": "second compound 0.1 µM, first compound 1 µM"}, "[15]": {"conditions": "second compound 0.1 µM, first compound 3.16 µM"}, "[16]": {"conditions": "second compound 0.1 µM, first compound 10 µM"}, "[17]": {"conditions": "second compound 0.316 µM, first compound 0.0316 µM"}, "[18]": {"conditions": "second compound 0.316 µM, first compound 0.1 µM"}, "[19]": {"conditions": "second compound 0.316 µM, first compound 0.316 µM"}, "[20]": {"conditions": "second compound 0.316 µM, first compound 1 µM"}, "[21]": {"conditions": "second compound 0.316 µM, first compound 3.16 µM"}, "[22]": {"conditions": "second compound 0.316 µM, first compound 10 µM"}, "[23]": {"conditions": "second compound 1 µM, first compound 0.0316 µM"}, "[24]": {"conditions": "second compound 1 µM, first compound 0.1 µM"}, "[25]": {"conditions": "second compound 1 µM, first compound 0.316 µM"}, "[26]": {"conditions": "second compound 1 µM, first compound 1 µM"}, "[27]": {"conditions": "second compound 1 µM, first compound 3.16 µM"}, "[28]": {"conditions": "second compound 1 µM, first compound 10 µM"}}}
{"smiles": "C=CC(=O)N1CCN(c2nc(=O)n(-c3c(C)ccnc3C(C)C)c3nc(-c4c(O)cccc4F)c(F)cc23)C(C)C1", "note": "(stereo unspecified) + Cc1nc(NC(=O)N2CCCC2C(N)=O)sc1-c1ccnc(C(C)(C)C(F)(F)F)c1", "values": [{"measurement": "IC50", "setting": "[1]", "result": "< 31.6", "unit": "nM"}, {"measurement": "IC50", "setting": "[2]", "result": "< 31.6", "unit": "nM"}, {"measurement": "IC50", "setting": "[3]", "result": "< 31.6", "unit": "nM"}, {"measurement": "IC50", "setting": "[4]", "result": "< 31.6", "unit": "nM"}, {"measurement": "IC50", "setting": "curve of first compound, second compound 3.16 µM", "result": "< 31.6", "unit": "nM"}, {"measurement": "IC50", "setting": "curve of first compound, second compound 10 µM", "result": "< 31.6", "unit": "nM"}, {"measurement": "viability, T/C", "setting": "[5]", "result": 56.5, "unit": "%"}, {"measurement": "viability, T/C", "setting": "[6]", "result": 45.7, "unit": "%"}, {"measurement": "viability, T/C", "setting": "[7]", "result": 44.1, "unit": "%"}, {"measurement": "viability, T/C", "setting": "[8]", "result": 51.8, "unit": "%"}, {"measurement": "viability, T/C", "setting": "[9]", "result": 70.4, "unit": "%"}, {"measurement": "viability, T/C", "setting": "[10]", "result": 60.9, "unit": "%"}, {"measurement": "viability, T/C", "setting": "[11]", "result": 37.3, "unit": "%"}, {"measurement": "viability, T/C", "setting": "[12]", "result": 35.9, "unit": "%"}, {"measurement": "viability, T/C", "setting": "[13]", "result": 40.3, "unit": "%"}, {"measurement": "viability, T/C", "setting": "[14]", "result": 34.9, "unit": "%"}, {"measurement": "viability, T/C", "setting": "[15]", "result": 52.9, "unit": "%"}, {"measurement": "viability, T/C", "setting": "[16]", "result": 46.2, "unit": "%"}, {"measurement": "viability, T/C", "setting": "[17]", "result": 32.5, "unit": "%"}, {"measurement": "viability, T/C", "setting": "[18]", "result": 22.4, "unit": "%"}, {"measurement": "viability, T/C", "setting": "[19]", "result": 25.6, "unit": "%"}, {"measurement": "viability, T/C", "setting": "[20]", "result": 27.5, "unit": "%"}, {"measurement": "viability, T/C", "setting": "[21]", "result": 34.6, "unit": "%"}, {"measurement": "viability, T/C", "setting": "[22]", "result": 35, "unit": "%"}, {"measurement": "viability, T/C", "setting": "[23]", "result": 14.7, "unit": "%"}, {"measurement": "viability, T/C", "setting": "[24]", "result": 12.8, "unit": "%"}, {"measurement": "viability, T/C", "setting": "[25]", "result": 13.9, "unit": "%"}, {"measurement": "viability, T/C", "setting": "[26]", "result": 17.1, "unit": "%"}, {"measurement": "viability, T/C", "setting": "[27]", "result": 26.2, "unit": "%"}, {"measurement": "viability, T/C", "setting": "[28]", "result": 20.5, "unit": "%"}, {"measurement": "viability, T/C", "setting": "second compound 3.16 µM, first compound 0.0316 µM", "result": 10.3, "unit": "%"}, {"measurement": "viability, T/C", "setting": "second compound 3.16 µM, first compound 0.1 µM", "result": 6.71, "unit": "%"}, {"measurement": "viability, T/C", "setting": "second compound 3.16 µM, first compound 0.316 µM", "result": 6.68, "unit": "%"}, {"measurement": "viability, T/C", "setting": "second compound 3.16 µM, first compound 1 µM", "result": 9.84, "unit": "%"}, {"measurement": "viability, T/C", "setting": "second compound 3.16 µM, first compound 3.16 µM", "result": 12.8, "unit": "%"}, {"measurement": "viability, T/C", "setting": "second compound 3.16 µM, first compound 10 µM", "result": 11.2, "unit": "%"}, {"measurement": "viability, T/C", "setting": "second compound 10 µM, first compound 0.0316 µM", "result": 3.61, "unit": "%"}, {"measurement": "viability, T/C", "setting": "second compound 10 µM, first compound 0.1 µM", "result": 2.75, "unit": "%"}, {"measurement": "viability, T/C", "setting": "second compound 10 µM, first compound 0.316 µM", "result": 3.18, "unit": "%"}, {"measurement": "viability, T/C", "setting": "second compound 10 µM, first compound 1 µM", "result": 4.91, "unit": "%"}, {"measurement": "viability, T/C", "setting": "second compound 10 µM, first compound 3.16 µM", "result": 7.96, "unit": "%"}, {"measurement": "viability, T/C", "setting": "second compound 10 µM, first compound 10 µM", "result": 6.43, "unit": "%"}]}
{"smiles": "Cc1nc(NC(=O)N2CCCC2C(N)=O)sc1-c1ccnc(C(C)(C)C(F)(F)F)c1", "note": "(stereo unspecified)", "values": [{"measurement": "viability, T/C", "setting": "compound 0.0316 µM", "result": "92.1% [middle of 8 runs]"}, {"measurement": "viability, T/C", "setting": "compound 0.1 µM", "result": "74.7% [middle of 8 runs]"}, {"measurement": "viability, T/C", "setting": "compound 0.316 µM", "result": "49.1% [middle of 8 runs]"}, {"measurement": "viability, T/C", "setting": "compound 1 µM", "result": "28.3% [middle of 8 runs]"}, {"measurement": "viability, T/C", "setting": "compound 3.16 µM", "result": "12.5% [middle of 8 runs]"}, {"measurement": "viability, T/C", "setting": "compound 10 µM", "result": "7.52% [middle of 8 runs]"}, {"measurement": "IC50", "setting": "compound alone, run of 04/24/2023", "result": "316 nM [middle of 8 runs]"}]}
{"smiles": "Cn1ncc(Cl)c1-c1cc(C(=O)NC(CN)Cc2cccc(F)c2)sc1Cl", "note": "(stereo unspecified) + CC(Nc1ccc2c(c1)OCCn1cc(N3C(=O)OCC3C(F)F)nc1-2)C(N)=O", "values": [{"measurement": "IC50", "setting": "curve of first compound, second compound 0.00316 µM", "result": 285, "unit": "nM"}, {"measurement": "IC50", "setting": "curve of first compound, second compound 0.01 µM", "result": 455, "unit": "nM"}, {"measurement": "IC50", "setting": "[1]", "result": 223, "unit": "nM"}, {"measurement": "IC50", "setting": "[2]", "result": "< 31.6", "unit": "nM"}, {"measurement": "IC50", "setting": "[3]", "result": "< 31.6", "unit": "nM"}, {"measurement": "IC50", "setting": "[4]", "result": "< 31.6", "unit": "nM"}, {"measurement": "viability, T/C", "setting": "second compound 0.00316 µM, first compound 0.0316 µM", "result": 82.8, "unit": "%"}, {"measurement": "viability, T/C", "setting": "second compound 0.00316 µM, first compound 0.1 µM", "result": 69.4, "unit": "%"}, {"measurement": "viability, T/C", "setting": "second compound 0.00316 µM, first compound 0.316 µM", "result": 51.2, "unit": "%"}, {"measurement": "viability, T/C", "setting": "second compound 0.00316 µM, first compound 1 µM", "result": 28.9, "unit": "%"}, {"measurement": "viability, T/C", "setting": "second compound 0.00316 µM, first compound 3.16 µM", "result": 10.6, "unit": "%"}, {"measurement": "viability, T/C", "setting": "second compound 0.00316 µM, first compound 10 µM", "result": 87.3, "unit": "%"}, {"measurement": "viability, T/C", "setting": "second compound 0.01 µM, first compound 0.0316 µM", "result": 88.9, "unit": "%"}, {"measurement": "viability, T/C", "setting": "second compound 0.01 µM, first compound 0.1 µM", "result": 90.2, "unit": "%"}, {"measurement": "viability, T/C", "setting": "second compound 0.01 µM, first compound 0.316 µM", "result": 52.5, "unit": "%"}, {"measurement": "viability, T/C", "setting": "second compound 0.01 µM, first compound 1 µM", "result": 27.2, "unit": "%"}, {"measurement": "viability, T/C", "setting": "second compound 0.01 µM, first compound 3.16 µM", "result": 10.3, "unit": "%"}, {"measurement": "viability, T/C", "setting": "second compound 0.01 µM, first compound 10 µM", "result": 96.1, "unit": "%"}, {"measurement": "viability, T/C", "setting": "[5]", "result": 67, "unit": "%"}, {"measurement": "viability, T/C", "setting": "[6]", "result": 63.6, "unit": "%"}, {"measurement": "viability, T/C", "setting": "[7]", "result": 43.2, "unit": "%"}, {"measurement": "viability, T/C", "setting": "[8]", "result": 21.7, "unit": "%"}, {"measurement": "viability, T/C", "setting": "[9]", "result": 8.53, "unit": "%"}, {"measurement": "viability, T/C", "setting": "[10]", "result": 64.1, "unit": "%"}, {"measurement": "viability, T/C", "setting": "[11]", "result": 43.8, "unit": "%"}, {"measurement": "viability, T/C", "setting": "[12]", "result": 44, "unit": "%"}, {"measurement": "viability, T/C", "setting": "[13]", "result": 30.7, "unit": "%"}, {"measurement": "viability, T/C", "setting": "[14]", "result": 15.2, "unit": "%"}, {"measurement": "viability, T/C", "setting": "[15]", "result": 7.17, "unit": "%"}, {"measurement": "viability, T/C", "setting": "[16]", "result": 51.4, "unit": "%"}, {"measurement": "viability, T/C", "setting": "[17]", "result": 23.5, "unit": "%"}, {"measurement": "viability, T/C", "setting": "[18]", "result": 25.2, "unit": "%"}, {"measurement": "viability, T/C", "setting": "[19]", "result": 18.6, "unit": "%"}, {"measurement": "viability, T/C", "setting": "[20]", "result": 11, "unit": "%"}, {"measurement": "viability, T/C", "setting": "[21]", "result": 5.52, "unit": "%"}, {"measurement": "viability, T/C", "setting": "[22]", "result": 21.4, "unit": "%"}, {"measurement": "viability, T/C", "setting": "[23]", "result": 13.5, "unit": "%"}, {"measurement": "viability, T/C", "setting": "[24]", "result": 12.6, "unit": "%"}, {"measurement": "viability, T/C", "setting": "[25]", "result": 11.8, "unit": "%"}, {"measurement": "viability, T/C", "setting": "[26]", "result": 8.52, "unit": "%"}, {"measurement": "viability, T/C", "setting": "[27]", "result": 5.53, "unit": "%"}, {"measurement": "viability, T/C", "setting": "[28]", "result": 13.3, "unit": "%"}]}
